Test [1] has as its target FGFR1 (Homo sapiens, UniProt P11362). Briefly: FGFR receptor binding assay: ultrafiltration/mass spectrometry affinity screening to FGFR1 protein target. The conditions noted are these: ratio of lower-layer to upper-layer compound MS signal intensity; the greater the ratio, the stronger the affinity. As for the experimental part: The affinity of the polypeptide compound prepared by the present invention to FGFR1 was tested by using a control FGFR1 allosteric inhibitor (product number SSR128129E from Sigma) as a positive compound control.
Screening for the affinity to FGFR1 was as follows: FGFR1 solutions with an appropriate concentration were taken, the positive compound SSR128129E (Sigma) at an appropriate concentration and sample solutions of the inventive polypeptide compounds, as freeze-dried powders, dissolved in protein buffers were then respectively added. After incubation at room temperature for 50 min, ultrafiltration and screening were carried out to obtain various treated solutions. An appropriate volume of acetonitrile was added to each treated solution to precipitate a protein, the solution was then centrifuged, and the supernatant was taken and analyzed by mass spectrometry.
Affinity screening conditions: One-dimensional liquid-phase conditions were: chromatographic column; PolyLC chromatographic column, mobile phase A: KH2PO4, NaCl, pH 7.5, mobile phase B: acetonitrile, column temperature: 8° C., flow rate: 1 mL/min, and injection volume: appropriate; and two-dimensional liquid-phase conditions were: chromatographic column: BONUS RRHD, mobile phase A: 0.1% formic acid aqueous solution, mobile phase B: 0.1% formic acid in acetonitrile, column temperature: 60° C., flow rate: 0.3 mL/min, and injection volume: 40 uL. Gradient elution was used, i.e., 98% A (0-1 min), 98-10% A (1-6 min), 10% A (6-7.5 min), 10-98% A (7.5-8 min), and 98% A (8-9.5 min). Mass spectrometry conditions: Agilent 6530 Q-Tof, ESI ion source, voltage 3.5 KV, mass-to-charge ratio scanning range m/z=200-3000, acquisition mode: positive ion scanning, ion source temperature: 350° C., solvent removal temperature: 300° C., and nitrogen flow rate: 8 L/min.

The test system of test [2] is ethanol-induced gastric ulcer model in mice. As to the kind of experiment: Anti-ulcer effect on ethanol-induced gastric ulcer model in mice. Type of test: in vivo. Conditions: single administration; ulcer inhibition rate of test compound / ulcer inhibition rate of Compound 1. How it is done:
Experimental animals: Six-week old C57BL/6JGPt male mice, weighing about 20 g/mouse, were selected, with 10 mice in each group, from GemPharmatech (Chengdu) Co., Ltd., animal license number: SCXK (Chuan) 2020-034. After the experimental animals were divided into groups, they were dosed according to Table 5 one day before the experiment. Among the groups, the model group was given 200 μl of pure water, and the other dose groups were given 200 μl of drug solution. After that, all the animals were fasted for 24 h with free access to water. The next day, 1 h after administration, the mice in each group were given 9 μl/g of absolute ethanol by oral gavage for modeling. After 1 h, the animals were sacrificed by cervical dislocation, the gastric cardia was ligated, the pylorus was occluded, and the whole stomach was removed. 1 mL of 1% formaldehyde solution was injected into the gastric lumen via the glandular stomach, the cardia was ligated, and the stomach was taken out and immediately immersed in 1% formaldehyde solution. After soaking for 30 min, the stomach tissue was taken out and cut open along the greater curvature. The content of the stomach was rinsed off with normal saline, the injury of the gastric mucosa in the mice were observed and measured after being laid flat, and the ulcer index and ulcer inhibition rate were calculated; panoramic photos of the stomach were taken; and finally, the gastric tissue sample was immersed in formalin and fixed. Calculation method for ulcer index: If the length of cord-like injury was greater than 1 mm, the length thereof was measured, with 1 point per millimeter; if the width thereof was greater than 1 mm, the score thereof was doubled according to the number of millimeters of the width; and if the length was less than 1 mm, a score of 0.5 was given, and the scores were added up to obtain the ulcer index of the animal. Method of data statistics: the ulcer index was expressed as mean±standard deviation; the ulcer inhibition rate was calculated by using the median value and mean value of the ulcer index in each dosage group and simulation group; and the data were statistically analyzed by means of Excel, and the difference data of the gastric ulcer index were statistically analyzed by means of independent sample T test.

Test [3] has as its system HaCaT cells. Briefly: Proliferation of HaCaT cells (CCK8). The conditions noted are these: 0.2-0.8 μg/mL; 24 h, 48 h and 72 h; 1% serum. It is filed as cell-based, human. How it is done: Experimental method: Immortalized human keratinocytes (HaCaT cells) was adjusted to a concentration of 1.0×10^5 to 5.0×10^5/mL for passaging, and they were cultured at 37° C. and 5% CO2 for 24-36 h for biological activity detection. The cells were digested with 0.25% trypsin for 5 min, 1640 whole blood culture medium, the volume of which was not less than 1 time of the volume of the trypsin, was added to stop digestion, a cell suspension was collected, centrifuged at 1000 RPM for 3 min, the supernatant was discarded, 2 mL of 1640 whole blood culture medium was added to suspend the cells, 20 μL of the cell suspension was taken and stained with AOPI, the concentration of cells in the suspension was then detected by a cell counter, the suspension was prepared to a concentration of 5×10^4/mL with 1640 culture medium containing serum at a concentration of 10% and inoculated into a 96-well cell culture plate, with 100 μL per well, i.e., 5000 cells/well, and the plate was cultured at 37° C. and 5% CO2 overnight.
After 24 h, the original culture medium was discarded, and 100 μL of polypeptide compound solutions with different concentrations prepared with 1640 culture medium containing serum at a concentration of 1% were added, such that the final concentrations of the polypeptide compounds to be tested were 0.2, 0.4 and 0.8 ug/mL, respectively. In addition, an EGF control group was prepared by adding 100 μL of a recombinant human epidermal growth factor (EGF) solution prepared with 1640 culture medium containing serum at a concentration of 1%, with the final concentration being 100 ng/ml. In the model control group, an equal volume of 1640 culture medium containing serum at a concentration of 1% was added. After culturing at 37° C. and 5% CO2 for 24 h, 48 h and 72 h, the proliferation of the HaCaT cell line was detected by means of CCK8 kit.

The subject of test [4] is RSC96 cells. Briefly: Proliferation of RSC96 cells (CCK-8). Type of test: cell-based. The conditions noted are these: 0.2, 0.4 and 0.8 ug/ml; 48 h; 0% serum. As for the experimental part: Glial cells (RSC96 cells) were adjusted to a concentration of 1.0×10^5 to 5.0×10^5/mL for passaging and cultured at 37° C. and 5% CO2 for 24-36 h for biological activity detection. The cells were digested by trypsin, collected, prepared to a concentration of 5×10^4/mL with a serum-free medium, inoculated into a 96-well cell culture plate, with 100 μL per well, i.e., 5000 cells/well, and cultured overnight at 37° C. and 5% CO2. The polypeptide compound of the present invention was prepared to test concentrations (0.2 ug/ml, 0.4 ug/ml, and 0.8 ug/ml) with 0% serum culture medium as experimental groups, and an equal amount of 0% serum drug-free culture medium was added to the control group. They were added to 4 duplicate wells, and the resultants were incubated at 37° C. and 5% CO2 for 48 h. Detection of the proliferation of cells using CCK-8: the old culture medium was removed, and a serum-free medium containing 10% CCK-8 was added to each well. After incubation in an incubator for 2 h, the absorbance at 450 nm was measured by a microplate reader.

For test [5], the system named is HMEC-1 cells. Briefly: Proliferation of HMEC-1 cells (CCK-8). Conditions: 0.05, 0.2 and 0.8 ug/mL; 48 h; 0% serum. Type of test: cell-based, Human. As for the experimental part: Human microvascular endothelial cells (HMEC-1 cells) were cultured in 10% serum culture medium at 37° C. and 5% CO2, the medium was replaced every 1-2 d, and the cell concentration was controlled to be 4×10^6 cells/mL for passage. Cells were collected, prepared to […] with complete culture medium, inoculated into a 96-well cell culture plate, with 100 μL per well, i.e., 5000 cells/well, and cultured at 37° C. and 5% CO2 until the cells adhered to the wall. The polypeptide compound of the present invention was prepared to test concentrations (0.05 ug/mL, 0.2 ug/mL, and 0.8 ug/mL) with 0% serum culture medium as experimental groups, a positive drug (300 ng/ml) was prepared in the same way and added as a positive control, and an equal amount of 0% serum drug-free culture medium was added to the control group. They were added to 5 duplicate wells, and the resultants were incubated at 37° C. and 5% CO2 for 48 h. Detection of the proliferation of cells using CCK-8: the old culture medium was removed, and a serum-free medium containing 10% CCK-8 was added to each well. After incubation in an incubator for 2 h, the absorbance at 450 nm was measured by a microplate reader.

“Also recorded” adds a separate entry of the source. Where no end group is shown, it is not given here.

Chain of FGFR1 (P11362 22-822, species assumed): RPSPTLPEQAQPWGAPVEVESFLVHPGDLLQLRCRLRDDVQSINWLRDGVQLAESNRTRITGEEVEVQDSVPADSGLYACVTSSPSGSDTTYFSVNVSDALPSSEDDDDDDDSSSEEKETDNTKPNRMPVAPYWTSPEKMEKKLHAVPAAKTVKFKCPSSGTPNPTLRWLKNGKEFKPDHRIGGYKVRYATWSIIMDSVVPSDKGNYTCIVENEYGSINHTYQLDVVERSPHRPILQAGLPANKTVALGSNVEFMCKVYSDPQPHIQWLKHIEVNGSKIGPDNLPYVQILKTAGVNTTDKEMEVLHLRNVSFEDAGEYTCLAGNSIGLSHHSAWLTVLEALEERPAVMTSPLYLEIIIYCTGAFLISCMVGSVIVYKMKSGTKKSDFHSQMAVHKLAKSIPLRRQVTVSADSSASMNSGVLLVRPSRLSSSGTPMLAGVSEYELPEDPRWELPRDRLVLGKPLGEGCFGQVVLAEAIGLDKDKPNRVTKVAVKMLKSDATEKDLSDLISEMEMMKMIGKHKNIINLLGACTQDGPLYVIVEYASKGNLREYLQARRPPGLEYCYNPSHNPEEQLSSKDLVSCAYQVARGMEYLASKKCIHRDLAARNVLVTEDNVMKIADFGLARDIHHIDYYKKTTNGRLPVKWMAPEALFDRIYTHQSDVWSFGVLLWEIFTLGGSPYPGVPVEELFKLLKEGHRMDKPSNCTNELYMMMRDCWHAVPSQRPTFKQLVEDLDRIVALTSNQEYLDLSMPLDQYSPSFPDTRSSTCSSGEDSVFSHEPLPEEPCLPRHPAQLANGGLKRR

For AARLADELRAE [Compound 65], the Cb/Ct range in test [1] is reported as 1.0-3. Further, the “Anti-ulcer activity (mean relative ulcer inhibition rate)” value in test [2] was determined as 1.29. Besides, in test [3], the “effect on proliferation of HaCaT cells” value is given as “proliferation-promoting effect”. Besides, the “effect on proliferation of RSC96 cells” value in test [4] is “proliferation-promoting effect”.

For the sequence AAVLEKLE [Compound 69], the Cb/Ct range in test [1] is on record as 1.0-3. Moreover, in test [2], the “Anti-ulcer activity (mean relative ulcer inhibition rate)” value worked out at 1.25. Also, the “effect on proliferation of HaCaT cells” value in test [3] is recorded as “proliferation-promoting effect”.

Consider EINQLELIKQASI [Compound 64], for which, in test [1], the Cb/Ct range is 1.0-3. The “Anti-ulcer activity (mean relative ulcer inhibition rate)” value in test [2] came to 0.61. Besides, the “effect on proliferation of HaCaT cells” value in test [3] was “proliferation-promoting effect”. In addition, the “effect on proliferation of HMEC-1 cells” value in test [5] was “proliferation-promoting effect”. Besides, in test [4], the “effect on proliferation of RSC96 cells” value is listed as “significant proliferation promoting effects”.

Turning to ETLQRKNKE [Compound 66], the Cb/Ct range in test [1] is listed as 1.0-3. For the same sequence, the “Anti-ulcer activity (mean relative ulcer inhibition rate)” value in test [2] stood at 0.52. Further, the “effect on proliferation of HaCaT cells” value in test [3] is reported as “proliferation-promoting effect”. In addition, the “effect on proliferation of RSC96 cells” value in test [4] is “significant proliferation promoting effects”.

As for FDALKQQFQAFQLE [Compound 62], in test [1], the Cb/Ct range was 1.0-3. The “Anti-ulcer activity (mean relative ulcer inhibition rate)” value in test [2] is recorded as 0.89.

In the case of HCLAGLKKDLEDLE [Compound 63], the Cb/Ct range in test [1] is listed as 1.0-3. For the same sequence, the “Anti-ulcer activity (mean relative ulcer inhibition rate)” value in test [2] turned out to be 1.99. Moreover, in test [3], the “effect on proliferation of HaCaT cells” value is “proliferation-promoting effects”. The “effect on proliferation of RSC96 cells” value in test [4] is “proliferation-promoting effect”.

For “KFYSQSTASSSYAYPSHFGPAGFSGSHS [Compound 70]”, the Cb/Ct range in test [1] is given as 1.0-3. For the same sequence, the “Anti-ulcer activity (mean relative ulcer inhibition rate)” value in test [2] was 0.39. Further, the “effect on proliferation of HaCaT cells” value in test [3] is listed as “proliferation-promoting effect”. Further, in test [4], the “effect on proliferation of RSC96 cells” value was “inhibitory effect”.

Regarding VDAAMVLLTR [Compound 72], the Cb/Ct range in test [1] is 1.0-3. The “Anti-ulcer activity (mean relative ulcer inhibition rate)” value in test [2] was determined as 1.65. Further, in test [3], the “effect on proliferation of HaCaT cells” value is listed as “proliferation-promoting effect”. In addition, in test [5], the “effect on proliferation of HMEC-1 cells” value is “significant proliferation promoting effects; also recorded: proliferation-promoting effect”.

As for VDAAVIEKIE [Compound 71], in test [1], the Cb/Ct range is reported as 1.0-3. In addition, the “Anti-ulcer activity (mean relative ulcer inhibition rate)” value in test [2] is recorded as 0.77. Moreover, the “effect on proliferation of HaCaT cells” value in test [3] was “proliferation-promoting effect”. Also, in test [5], the “effect on proliferation of HMEC-1 cells” value is “proliferation-promoting effect”.

With VDAAVLMLRT [Compound 73], in test [1], the Cb/Ct range is recorded as 1.0-3. In test [2], the “Anti-ulcer activity (mean relative ulcer inhibition rate)” value is given as 1.46. The “effect on proliferation of HaCaT cells” value in test [3] is recorded as “proliferation-promoting effect”. For the same sequence, in test [5], the “effect on proliferation of HMEC-1 cells” value is listed as “proliferation-promoting effect”. Besides, the “effect on proliferation of RSC96 cells” value in test [4] was “proliferation-promoting effect”.
